Reference: US20070015735A1, “Water-dispersible carotenoids, including analogs and derivatives” (priority 2005, published 2007)

Format: physicochemical
Conditions: 2 h

Aqueous dispersibility (concentration of the original supernatant): 2.85 mg/mL
Substance: β,ε-Carotenyl 3,3′-disuccinate sodium salt [compound 106]
